Assay results from US20230220047A1, “PEPTIDES FOR TREATMENT OF SEPSIS AND CANCER” (NORWEGIAN UNIVERSITY OF SCIENCE AND TECHNOLOGY (NTNU), priority 2020, published 2023).

Experiments:
[1] = test system: primary human monocytes; test: Confocal analysis of E. coli particle uptake by primary human monocytes; assay type: cell-based; details: 3 μM, similar extent as P7-Pen
Experimental: Cells were pre-incubated with Pen or P7-Pen peptides, followed by addition of Alexa Fluor 488-labeled bioparticles for the times indicated (15, 30 or 45 min). Fluorescent bacteria particles were counted by spot-detection in Bitplane Imaris imaging software and used to calculate the number of particles per cell. […] Pre-incubation with 3 μM cytochalasin D (CytoD, and inhibitor of actin polymerization) inhibited uptake of E. coli to a similar extent as P7-Pen.
THP-1 cells, THP-1^cherry cells or human PBMC were seeded in 24-well glass-bottom plates (MatTek Corporation), 125,000 cells/well. The THP-1 cells were differentiated into macrophages with 60 ng/ml PMA for 72 h and thereafter rested for 48 h, whereas the PBMC were used the day after isolation. The P7-penatratin peptide or control peptide was added to the cells 30 min before stimulation at 15 μM concentration. If used, 3 μM cytochalasin D (CytoD) was added simultaneously. […] A spot detection mode in the Bitplan Imaris software was used to define individual phagosomes and cells were counted manually. […] Fluorescence voxel intensity of TRAM^cherry at the phagosome is also presented. Statistical significance was calculated in GraphPad Prism by One-way ANOVA Kruskal-Wallis multiple comparison test. […]

[2] = test system: TLR4; test: qPCR of TLR4-mediated cytokine expression in B6 immortalised murine macrophages; assay type: cell-based, mouse; details: 10 μM, 1 h pre-treatment, LPS 100 ng/ml
Experimental: Cells were pre-treated with 10 μM peptides in cell culture media for 1 h, and stimulated with LPS (100 ng/ml) for increasing lengths of time.
Immortalized bone-derived-macrophages (iBMDM) from wild type, Tram−/− or TIr4−/− C57BL/6 mice were maintained at 37° C. and 5% CO2 in DMEM supplemented with 10% FCS.
(§1) Total RNA was isolated from the cells using Qiazol reagent #79306 from QIAGEN, and chloroform extraction followed by purification on RNeasy Mini columns with DNAse digestion (Qiagen). cDNA was prepared using the Maxima First Strand cDNA Synthesis Kit for quantitative real-time polymerase chain reaction (RT-qPCR) (Thermo Fisher Scientific) according to the manufacturer's protocol. qPCR was performed using the PerfeCTa qPCR FastMix (Quanta Biosciences) in replicates and cycled in a StepOnePlus™ Real-Time PCR cycler. The following TaqMan® Gene Expression Assays (Applied Biosystems®) were used: IFNβ (Hs01077958_s1), TNF (Hs00174128_m1), TBP (Hs00427620_m1), CXCL10 (Hs01124251_g1), IL-6 (Hs00174131_m1) and IL-1β (Hs01555410_m1), for human cells; Ifnβ (Mm00439552_s1), Tnf (Mm00443258_m1), Tbp (Mm01277042_m1) and II-1β (Mm00434228_m1), for mouse cells. No RT controls were negative. The level of TBP mRNA was used for normalisation and results presented as relative expression compared to the control untreated sample. Relative expression was calculated using Pfaffl's mathematical model (Pfaffl, Nucleic Acids Research 29(9): e45, 2001). Results are presented as the mean and SD expression fold change for biological replicates relative to non-stimulated cells. Statistical significance was evaluated in GraphPad Prizm 5.03. Data distribution was assumed to be normal but this was not formally tested. The difference between the two groups was determined by two-tailed t test.
We proceeded with cellular assays to address the effect of peptide pre-treatment on TLR4-mediated cytokine expression in B6 immortalised murine macrophages (FIG. 13). Tested peptides had no cytotoxic effect on B6 murine macrophages (FIG. 13A).

[3] = test system: THP-1 cells; test: LDH cytotoxicity assay in THP-1 cells; details: CPP screen, 15 μM, 30 min pre-treatment, LPS 100 ng/ml
Experimental: For every assay, separate wells were seeded for the required controls (Spontaneous LDH Release Controls and Maximum LDH Release Control) with the same amount of cells as used for peptide treatments. All supernatants were analysed in triplicate with the average value of technical replicates taken into calculations.
THP-1 cells were pre-treated with increasing concentrations of P7-Arg11 and control peptide Arg11 for 1 h (FIG. 3).

[4] = test system: TLR4; test: Western blot of LPS signalling in THP-1 cells and primary human monocytes; assay type: cell-based; details: data not shown
Experimental: (§2) Protein pellets were dissolved by heating protein pellets for 10 min at 95° C. in buffer containing 4 M urea, 1 SDS (Sigma) and NuPAGE® LDS Sample Buffer (4×) (Thermo Fisher Scientific). Otherwise, lysates were made using 1× RIPA lysis buffer (150 mM NaCl, 50 mM TrisHCl (pH 7.5), 1% Triton X100, 5 mM EDTA, protease inhibitors, phosphatase inhibitors). For Western blot analysis we used pre-cast protein gels NuPAGE™ Novex™ and iBlot Transfer Stacks iBlot Gel Transfer Device (Thermo Fisher Scientific). Proteins were transferred to the membrane by dry-blotting using iBlot® 2 NC Regular/Mini Stacks (Life Technologies) in the iBlot 2 Dry Blotting System (Life Technologies). After secondary antibody incubation, membranes were washed and incubated with HRP substrate solution (SuperSignal™ West Femto Maximum Sensitivity Substrate (Thermo Fisher Scientific)). Images were taken using Odyssey® Fc (LI-CORE). Quantification graphs were generated by the analysis of signal intensities for protein bands (protein of interest and endogenous loading control—β-tubulin from the same membrane) using Odyssey software (LI-CORE). Data were normalised to the expression levels of β-tubulin and presented as a relative fold change to the control sample.
Further, we tested the effect of P7-Pen on phosphorylation of p38 MAPK, IκBα degradation and modification of IRAK1 in human macrophages (THP-1 cells) and primary human monocytes. P7-Pen inhibited LPS-mediated phosphorylation of p38 MAPK (FIG. 24A) and inhibited IRAK1 ubiquitination/phosphorylation (visualised as band shift to higher molecular weight) in primary monocytes (FIG. 24B).

[5] = test system: TLR4; test: qPCR of LPS-mediated cytokine mRNA expression in THP-1 macrophages; assay type: cell-based, human; details: 15 μM
Experimental: SW480 (ATCC CCL-228) and Jurkat (ATCC Clone E6-1; TIB-152) cells were cultured in RPMI 1640 (Sigma-Aldrich, Schnelldorf, Germany) supplemented with 10% heat-inactivated FCS, penicillin/streptomycin (Life Technologies) and 20 mM L-Glutamine. THP-1 cells (ATCC TIB-202) were cultured in RPMI-1640 (high-glucose, ATCC) supplemented with 10% heat inactivated foetal calf serum (FCS), 100 nM penicillin/streptomycin and 5 μM β-mercaptoethanol (Sigma). THP-1 cells were differentiated with 60 ng/ml phorbol 12-myristate 13-acetate (PMA, Sigma) for 72 h, followed by 24 or 48 h in medium without PMA.
as §1

[6] = test system: STAT1; test: Western blot of STAT1 phosphorylation in LPS-stimulated THP-1 cells; assay type: cell-based, human; details: 15 μM, compared to control peptide
Experimental: as §2

Compound: C=C1[C@@H](C)[C@H]2[C@H](Cc3ccccc3)NC(=O)[C@]23[C@H](OC(C)=O)/C=C/[C@@](C)(O)C(=O)[C@@H](C)C/C=C/[C@H]3[C@@H]1O [cytochalasin D, reference compound]
- uptake of E. coli [1]: inhibited

Compound: Ac-ITVYASVTLTGKLALKLALKALKAALKLA-NH2 [Peptide P7-KLA]
- TLR4-mediated Ifnβ, Tnf and Il-1β mRNA expression [2]: strongly inhibited
- reduction of LPS-mediated toxicity (LDH assay) [3]: most effective

Compound: ITVYASVTATGRQIKIWFQNRRMKWKK (P7-A9-Pen) [Peptide P7-A9-Pen]
- pattern of inhibition of p38 MAPK phosphorylation and IRAK1 modification as seen with P7-Pen [4]: inactive

Compound: TNSITVYASVTLTESGRRRRRRRRRRR (P3-Arg11) [Peptide P3-Arg11]
- LPS-mediated cytokine mRNA expression [5]: not effective
- phosphorylation of STAT1 upon LPS stimulation [6]: no effect
